In ChEMBL document CHEMBL1131296 (J Med Chem, 1998):

What was measured:
D(2) dopamine receptor = D(2) dopamine receptor (Rattus norvegicus, UniProt P61169); experiment: Binding affinity at native Dopamine receptor D2 in rat striatum by [3H]spiperone displacement.; type: tissue-based
[1] = biological target: T1, Alpha-1B adrenergic receptor (Rattus norvegicus, UniProt P15823); experiment: Antagonism of phenylephrine stimulated contraction of the rat isolated spleen.; type: functional, tissue-based; settings: read-out: pA2 (converted)
T1 sequence (P15823 whole entry): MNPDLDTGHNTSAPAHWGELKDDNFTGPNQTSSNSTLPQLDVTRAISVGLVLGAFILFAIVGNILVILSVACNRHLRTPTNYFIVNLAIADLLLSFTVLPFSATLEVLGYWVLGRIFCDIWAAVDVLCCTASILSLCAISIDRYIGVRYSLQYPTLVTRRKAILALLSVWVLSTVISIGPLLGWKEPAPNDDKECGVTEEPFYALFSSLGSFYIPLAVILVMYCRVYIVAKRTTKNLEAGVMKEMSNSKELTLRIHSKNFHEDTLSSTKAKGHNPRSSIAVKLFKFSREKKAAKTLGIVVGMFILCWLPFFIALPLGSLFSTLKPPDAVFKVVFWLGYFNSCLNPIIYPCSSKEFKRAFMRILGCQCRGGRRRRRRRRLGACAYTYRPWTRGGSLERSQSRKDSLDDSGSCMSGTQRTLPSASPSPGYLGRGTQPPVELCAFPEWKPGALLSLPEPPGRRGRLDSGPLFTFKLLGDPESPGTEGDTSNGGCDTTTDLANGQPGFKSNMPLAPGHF

[2] = biological target: T2, Adrenergic receptor alpha-2 (Rattus norvegicus, UniProt P22086+P19328+P22909); experiment: Antagonism of the clonidine-induced depression of twitch responses of rat isolated prostatic vas deferens.
T2 sequence (P22086 whole entry): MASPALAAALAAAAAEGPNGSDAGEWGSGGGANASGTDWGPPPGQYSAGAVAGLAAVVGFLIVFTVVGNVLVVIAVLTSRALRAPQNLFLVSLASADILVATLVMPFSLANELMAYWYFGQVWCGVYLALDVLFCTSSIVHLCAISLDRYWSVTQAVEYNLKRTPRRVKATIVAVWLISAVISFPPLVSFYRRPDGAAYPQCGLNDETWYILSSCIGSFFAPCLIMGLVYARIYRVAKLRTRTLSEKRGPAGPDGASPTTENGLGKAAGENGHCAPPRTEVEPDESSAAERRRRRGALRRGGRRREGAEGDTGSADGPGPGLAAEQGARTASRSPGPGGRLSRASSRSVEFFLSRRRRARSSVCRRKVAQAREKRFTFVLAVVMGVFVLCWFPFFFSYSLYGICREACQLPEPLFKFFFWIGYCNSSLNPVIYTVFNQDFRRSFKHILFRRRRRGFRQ
T2 sequence (P19328 whole entry): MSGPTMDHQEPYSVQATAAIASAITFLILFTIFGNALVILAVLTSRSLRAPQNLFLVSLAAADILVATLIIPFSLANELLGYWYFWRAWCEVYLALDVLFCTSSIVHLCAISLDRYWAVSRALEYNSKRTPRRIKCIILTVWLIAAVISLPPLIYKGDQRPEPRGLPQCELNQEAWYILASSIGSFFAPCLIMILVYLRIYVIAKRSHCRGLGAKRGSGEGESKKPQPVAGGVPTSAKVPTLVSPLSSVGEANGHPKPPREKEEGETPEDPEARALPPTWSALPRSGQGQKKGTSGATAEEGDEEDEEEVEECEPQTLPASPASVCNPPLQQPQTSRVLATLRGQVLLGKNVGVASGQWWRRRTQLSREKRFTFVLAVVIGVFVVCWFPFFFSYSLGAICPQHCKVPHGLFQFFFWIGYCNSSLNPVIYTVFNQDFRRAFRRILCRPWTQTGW
T2 sequence (P22909 whole entry): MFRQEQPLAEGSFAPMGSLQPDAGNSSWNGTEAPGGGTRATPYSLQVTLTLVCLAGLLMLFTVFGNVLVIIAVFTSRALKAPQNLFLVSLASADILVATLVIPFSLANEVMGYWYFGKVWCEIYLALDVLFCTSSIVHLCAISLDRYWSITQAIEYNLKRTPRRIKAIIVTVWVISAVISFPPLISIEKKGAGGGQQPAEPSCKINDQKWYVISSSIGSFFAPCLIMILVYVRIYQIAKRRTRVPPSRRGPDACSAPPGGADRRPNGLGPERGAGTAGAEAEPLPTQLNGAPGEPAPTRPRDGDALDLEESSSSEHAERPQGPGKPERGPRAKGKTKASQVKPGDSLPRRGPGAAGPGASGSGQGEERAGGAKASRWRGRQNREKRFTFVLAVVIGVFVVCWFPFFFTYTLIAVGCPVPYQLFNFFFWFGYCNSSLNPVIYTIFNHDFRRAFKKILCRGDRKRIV

[3] = biological target: T3, Alpha-1D adrenergic receptor (Homo sapiens, UniProt P25100); experiment: Binding affinity at human cloned Alpha-1D adrenergic receptor in chinese hamster ovary cells by [3H]prazosin displacement.; type: cell-based, CHO
T3 sequence (P25100 whole entry): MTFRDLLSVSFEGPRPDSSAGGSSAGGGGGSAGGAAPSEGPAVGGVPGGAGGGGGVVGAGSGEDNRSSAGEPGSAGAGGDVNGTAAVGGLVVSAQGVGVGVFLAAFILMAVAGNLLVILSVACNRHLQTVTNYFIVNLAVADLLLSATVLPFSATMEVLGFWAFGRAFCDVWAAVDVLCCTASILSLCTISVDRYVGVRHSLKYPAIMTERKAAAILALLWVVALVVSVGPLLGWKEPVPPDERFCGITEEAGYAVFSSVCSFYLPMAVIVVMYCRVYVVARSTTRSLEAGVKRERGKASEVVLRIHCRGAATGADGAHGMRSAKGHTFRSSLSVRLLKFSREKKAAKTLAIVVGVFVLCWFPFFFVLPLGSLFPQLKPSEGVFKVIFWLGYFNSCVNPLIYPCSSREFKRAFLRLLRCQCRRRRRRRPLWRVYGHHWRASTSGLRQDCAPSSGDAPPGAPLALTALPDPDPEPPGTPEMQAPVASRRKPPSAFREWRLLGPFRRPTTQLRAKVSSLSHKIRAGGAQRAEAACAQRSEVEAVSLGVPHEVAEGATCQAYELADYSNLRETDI

D(2) dopamine receptor, sequence (P61169 whole entry): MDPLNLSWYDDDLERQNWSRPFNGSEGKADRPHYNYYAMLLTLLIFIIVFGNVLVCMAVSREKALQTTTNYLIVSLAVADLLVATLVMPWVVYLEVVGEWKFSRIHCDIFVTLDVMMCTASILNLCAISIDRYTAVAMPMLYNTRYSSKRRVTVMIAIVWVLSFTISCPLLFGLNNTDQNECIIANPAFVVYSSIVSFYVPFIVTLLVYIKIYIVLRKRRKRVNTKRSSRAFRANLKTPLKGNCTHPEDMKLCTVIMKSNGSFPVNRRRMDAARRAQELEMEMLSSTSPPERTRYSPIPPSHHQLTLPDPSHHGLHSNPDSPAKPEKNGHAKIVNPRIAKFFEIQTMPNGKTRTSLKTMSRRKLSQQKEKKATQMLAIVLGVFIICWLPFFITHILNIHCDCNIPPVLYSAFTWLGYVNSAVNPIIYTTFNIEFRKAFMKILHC

Ki (D(2) dopamine receptor): 1950 nM
Kb [1]: 37.2 nM
pA2 [2]: < 5
Ki [3]: 0.245 nM
SMILES: COc1cc2nc(N(C)CCCCCCN(C)C(=O)c3cccc(CN(C)C)c3)nc(N)c2cc1OC
